In PubChem BioAssay (NCI):
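Cultured in 96-well plates, cells were exposed to test compound for 48 hours across five concentrations. Definition used: TGI = concentration required for complete inhibition of growth.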

Legend:
Test in all cases: NCI tumour cell line growth inhibition, 48 h
NCI-H522 lung = system: NCI-H522 lung
UO-31 renal = system: UO-31 renal
TK-10 renal = system: TK-10 renal
K-562 leukemia = system: K-562 leukemia
HCT-15 colon = system: HCT-15 colon
SK-OV-3 ovarian = system: SK-OV-3 ovarian
RXF-631 renal = system: RXF-631 renal
U251 CNS = system: U251 CNS
SF-268 CNS = system: SF-268 CNS
OVCAR-5 ovarian = system: OVCAR-5 ovarian
HCT-116 colon = system: HCT-116 colon
LXFL 529 NSCLC = system: LXFL 529 NSCLC
SF-539 CNS = system: SF-539 CNS
SR leukemia = system: SR leukemia
HT29 colon = system: HT29 colon
DLD-1 colon = system: DLD-1 colon
NCI-H460 lung = system: NCI-H460 lung
HCC-2998 colon = system: HCC-2998 colon
M14 melanoma = system: M14 melanoma
MOLT-4 leukemia = system: MOLT-4 leukemia
SK-MEL-28 melanoma = system: SK-MEL-28 melanoma
MALME-3M melanoma = system: MALME-3M melanoma
OVCAR-3 ovarian = system: OVCAR-3 ovarian
NCI-H23 lung = system: NCI-H23 lung
HOP-62 NSCLC = system: HOP-62 NSCLC
ACHN renal = system: ACHN renal
SNB-19 CNS = system: SNB-19 CNS
KM12 colon = system: KM12 colon
EKVX NSCLC = system: EKVX NSCLC
M19-MEL melanoma = system: M19-MEL melanoma
SNB-75 CNS = system: SNB-75 CNS
CCRF-CEM leukemia = system: CCRF-CEM leukemia
XF 498 CNS = system: XF 498 CNS
RXF 393 renal = system: RXF 393 renal
SNB-78 CNS = system: SNB-78 CNS
SK-MEL-2 melanoma = system: SK-MEL-2 melanoma
LOX IMVI melanoma = system: LOX IMVI melanoma
RPMI-8226 leukemia = system: RPMI-8226 leukemia
DMS 114 small cell lung = system: DMS 114 small cell lung
UACC-62 melanoma = system: UACC-62 melanoma
OVCAR-4 ovarian = system: OVCAR-4 ovarian
A498 renal = system: A498 renal
SN12C renal = system: SN12C renal
HL-60(TB) leukemia = system: HL-60(TB) leukemia
UACC-257 melanoma = system: UACC-257 melanoma
IGROV1 ovarian = system: IGROV1 ovarian
CAKI-1 renal = system: CAKI-1 renal
NCI-H226 lung = system: NCI-H226 lung
COLO 205 colon = system: COLO 205 colon
SK-MEL-5 melanoma = system: SK-MEL-5 melanoma
HOP-18 NSCLC = system: HOP-18 NSCLC
OVCAR-8 ovarian = system: OVCAR-8 ovarian
SF-295 CNS = system: SF-295 CNS
SW-620 colon = system: SW-620 colon
DMS 273 small cell lung = system: DMS 273 small cell lung
786-0 renal = system: 786-0 renal
A549 NSCLC = system: A549 NSCLC
HOP-92 NSCLC = system: HOP-92 NSCLC
KM20L2 colon = system: KM20L2 colon

## Cc1cc(NS(=O)(=O)c2ccc(NC(=O)c3cccc4c(Nc5ccc(S(N)(=O)=O)cc5)c5ccccc5nc34)cc2)no1
NCI-H522 lung
  TGI: > 100 µM
UO-31 renal
  TGI: > 100 µM
TK-10 renal
  TGI: > 100 µM
K-562 leukemia
  TGI: > 100 µM
HCT-15 colon
  TGI: > 100 µM
SK-OV-3 ovarian
  TGI: > 100 µM
RXF-631 renal
  TGI: > 100 µM
U251 CNS
  TGI: > 100 µM
SF-268 CNS
  TGI: > 100 µM
OVCAR-5 ovarian
  TGI: > 100 µM
HCT-116 colon
  TGI: > 100 µM
LXFL 529 NSCLC
  TGI: > 100 µM
SF-539 CNS
  TGI: > 100 µM
SR leukemia
  TGI: > 100 µM
HT29 colon
  TGI: > 100 µM
DLD-1 colon
  TGI: > 100 µM
NCI-H460 lung
  TGI: > 100 µM
HCC-2998 colon
  TGI: > 100 µM
M14 melanoma
  TGI: > 100 µM
MOLT-4 leukemia
  TGI: > 100 µM
SK-MEL-28 melanoma
  TGI: > 100 µM
MALME-3M melanoma
  TGI: > 100 µM
OVCAR-3 ovarian
  TGI: > 100 µM
NCI-H23 lung
  TGI: > 100 µM
HOP-62 NSCLC
  TGI: > 100 µM
ACHN renal
  TGI: > 100 µM
SNB-19 CNS
  TGI: > 100 µM
KM12 colon
  TGI: > 100 µM
EKVX NSCLC
  TGI: > 100 µM
M19-MEL melanoma
  TGI: > 100 µM
SNB-75 CNS
  TGI: > 100 µM
CCRF-CEM leukemia
  TGI: > 100 µM
XF 498 CNS
  TGI: > 100 µM
RXF 393 renal
  TGI: > 100 µM
SNB-78 CNS
  TGI: > 100 µM
SK-MEL-2 melanoma
  TGI: > 100 µM
LOX IMVI melanoma
  TGI: > 100 µM
RPMI-8226 leukemia
  TGI: > 100 µM
DMS 114 small cell lung
  TGI: > 100 µM
UACC-62 melanoma
  TGI: > 100 µM
OVCAR-4 ovarian
  TGI: > 100 µM
A498 renal
  TGI: > 100 µM
SN12C renal
  TGI: > 100 µM
HL-60(TB) leukemia
  TGI: > 100 µM
UACC-257 melanoma
  TGI: > 100 µM

## O=C(/C=C/c1ccc(Cl)c(Cl)c1)c1cccc2ccccc12
NCI-H522 lung
  TGI: 10 µM
UO-31 renal
  TGI: 33.8 µM
IGROV1 ovarian
  TGI: 24.8 µM
TK-10 renal
  TGI: 30.5 µM
K-562 leukemia
  TGI: 11.2 µM
HCT-15 colon
  TGI: 7.12 µM
CAKI-1 renal
  TGI: 20.4 µM
SK-OV-3 ovarian
  TGI: 35.2 µM
RXF-631 renal
  TGI: 33.1 µM
U251 CNS
  TGI: 6.89 µM
SF-268 CNS
  TGI: 14.2 µM
OVCAR-5 ovarian
  TGI: 26.9 µM
HCT-116 colon
  TGI: 15.2 µM
LXFL 529 NSCLC
  TGI: 6.64 µM
SF-539 CNS
  TGI: 7.14 µM
HT29 colon
  TGI: 12.1 µM
NCI-H226 lung
  TGI: 28.3 µM
COLO 205 colon
  TGI: 26.2 µM
DLD-1 colon
  TGI: 11.4 µM
NCI-H460 lung
  TGI: 19.3 µM
HCC-2998 colon
  TGI: 22.4 µM
M14 melanoma
  TGI: 30.9 µM
SK-MEL-28 melanoma
  TGI: 33.5 µM
SK-MEL-5 melanoma
  TGI: 34.7 µM
MALME-3M melanoma
  TGI: 32.4 µM
OVCAR-3 ovarian
  TGI: 18.6 µM
HOP-18 NSCLC
  TGI: 31.1 µM
NCI-H23 lung
  TGI: 22.5 µM
HOP-62 NSCLC
  TGI: 31.4 µM
ACHN renal
  TGI: 30 µM
SNB-19 CNS
  TGI: 19.4 µM
KM12 colon
  TGI: 16.3 µM
EKVX NSCLC
  TGI: 32.5 µM
OVCAR-8 ovarian
  TGI: 4.74 µM
SF-295 CNS
  TGI: 24.5 µM
M19-MEL melanoma
  TGI: 24.6 µM
SW-620 colon
  TGI: 3.08 µM
SNB-75 CNS
  TGI: 14 µM
CCRF-CEM leukemia
  TGI: 7.18 µM
DMS 273 small cell lung
  TGI: 14.7 µM
SNB-78 CNS
  TGI: 26.8 µM
RPMI-8226 leukemia
  TGI: 8.53 µM
786-0 renal
  TGI: 13.2 µM
DMS 114 small cell lung
  TGI: 9.51 µM
UACC-62 melanoma
  TGI: 25.5 µM
A549 NSCLC
  TGI: 45.2 µM
OVCAR-4 ovarian
  TGI: 20.7 µM
A498 renal
  TGI: 38 µM
SN12C renal
  TGI: 31.8 µM
HOP-92 NSCLC
  TGI: 31.4 µM
HL-60(TB) leukemia
  TGI: 7.21 µM
UACC-257 melanoma
  TGI: 29.5 µM
KM20L2 colon
  TGI: 17.7 µM

## O=C(O)CCNS(=O)(=O)c1ccc([N+](=O)[O-])cc1
NCI-H522 lung
  TGI: > 100 µM
UO-31 renal
  TGI: > 100 µM
IGROV1 ovarian
  TGI: > 100 µM
TK-10 renal
  TGI: > 100 µM
K-562 leukemia
  TGI: > 100 µM
HCT-15 colon
  TGI: > 100 µM
CAKI-1 renal
  TGI: > 100 µM
SK-OV-3 ovarian
  TGI: > 100 µM
RXF-631 renal
  TGI: > 100 µM
U251 CNS
  TGI: > 100 µM
SF-268 CNS
  TGI: > 100 µM
OVCAR-5 ovarian
  TGI: > 100 µM
LXFL 529 NSCLC
  TGI: > 100 µM
SF-539 CNS
  TGI: > 100 µM
HT29 colon
  TGI: > 100 µM
NCI-H226 lung
  TGI: > 100 µM
COLO 205 colon
  TGI: > 100 µM
DLD-1 colon
  TGI: > 100 µM
NCI-H460 lung
  TGI: > 100 µM
HCC-2998 colon
  TGI: > 100 µM
M14 melanoma
  TGI: > 100 µM
MOLT-4 leukemia
  TGI: > 100 µM
SK-MEL-28 melanoma
  TGI: > 100 µM
SK-MEL-5 melanoma
  TGI: > 100 µM
MALME-3M melanoma
  TGI: > 100 µM
OVCAR-3 ovarian
  TGI: > 100 µM
HOP-18 NSCLC
  TGI: > 100 µM
NCI-H23 lung
  TGI: > 100 µM
ACHN renal
  TGI: > 100 µM
SNB-19 CNS
  TGI: > 100 µM
KM12 colon
  TGI: > 100 µM
EKVX NSCLC
  TGI: > 100 µM
OVCAR-8 ovarian
  TGI: > 100 µM
SF-295 CNS
  TGI: > 100 µM
M19-MEL melanoma
  TGI: > 100 µM
SW-620 colon
  TGI: > 100 µM
SNB-75 CNS
  TGI: > 100 µM
CCRF-CEM leukemia
  TGI: > 100 µM
DMS 273 small cell lung
  TGI: > 100 µM
XF 498 CNS
  TGI: > 100 µM
RXF 393 renal
  TGI: > 100 µM
SK-MEL-2 melanoma
  TGI: > 100 µM
LOX IMVI melanoma
  TGI: > 100 µM
RPMI-8226 leukemia
  TGI: > 100 µM
786-0 renal
  TGI: > 100 µM
UACC-62 melanoma
  TGI: > 100 µM
A549 NSCLC
  TGI: > 100 µM
OVCAR-4 ovarian
  TGI: > 100 µM
A498 renal
  TGI: > 100 µM
SN12C renal
  TGI: > 100 µM
HOP-92 NSCLC
  TGI: > 100 µM
HL-60(TB) leukemia
  TGI: > 100 µM
UACC-257 melanoma
  TGI: > 100 µM
KM20L2 colon
  TGI: > 100 µM
